According to ChEMBL document CHEMBL2046397, “Design and synthesis of 5-(substituted benzylidene)thiazolidine-2,4-dione derivatives as novel tyrosinase inhibitors” (Eur J Med Chem, 2012):
The source made the active and inactive calls. The calls are words filed in the database; no cut-off is given here.

Legend:
B16 [1] = test: Cytotoxicity against mouse B16 cells at 0.1 to 10 uM after 8 hrs by MTT assay; assay type: cell-based; settings: b16, 8 h
Tyrosinase = molecular target: T1, Tyrosinase (Agaricus bisporus, UniProt O42713); test: Inhibition of mushroom tyrosinase activity using L-tyrosine as substrate after 30 mins by spectrophotometric analysis
T1 sequence (O42713 whole entry): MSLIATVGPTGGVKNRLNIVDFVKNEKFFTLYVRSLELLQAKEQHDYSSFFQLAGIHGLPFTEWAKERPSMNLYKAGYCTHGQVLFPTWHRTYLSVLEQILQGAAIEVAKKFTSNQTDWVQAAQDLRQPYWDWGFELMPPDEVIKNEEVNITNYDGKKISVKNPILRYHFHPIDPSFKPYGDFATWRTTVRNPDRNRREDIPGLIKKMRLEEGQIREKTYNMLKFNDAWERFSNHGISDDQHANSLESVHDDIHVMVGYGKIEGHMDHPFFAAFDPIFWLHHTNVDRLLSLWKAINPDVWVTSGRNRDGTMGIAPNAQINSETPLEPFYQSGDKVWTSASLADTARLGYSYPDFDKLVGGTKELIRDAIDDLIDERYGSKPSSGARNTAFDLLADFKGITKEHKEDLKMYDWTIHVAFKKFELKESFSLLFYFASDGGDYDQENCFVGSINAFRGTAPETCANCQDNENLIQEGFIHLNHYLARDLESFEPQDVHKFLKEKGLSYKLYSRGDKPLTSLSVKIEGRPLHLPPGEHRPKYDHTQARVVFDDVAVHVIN

[2] = molecular target: T2, Tyrosinase (Agaricus bisporus) (UniProt O42713); test: Competitive inhibition of mushroom tyrosinase using L-tyrosine as substrate at 20 uM by Line-Weaver-Burk plot analysis
T2 sequence (whole entry): T1 sequence (O42713 whole entry)

[3] = molecular target: T2, Tyrosinase (Agaricus bisporus); test: Competitive inhibition of mushroom tyrosinase using L-tyrosine as substrate at 1.25 uM by Line-Weaver-Burk plot analysis
[4] = molecular target: T3, Tyrosinase (Mus musculus) (UniProt P11344); test: Inhibition of MSHalpha-stimulated tyrosinase activity in mouse B16 cells using L-DOPA as substrate after 24 hrs by […]; assay type: cell-based
T3 sequence (whole entry): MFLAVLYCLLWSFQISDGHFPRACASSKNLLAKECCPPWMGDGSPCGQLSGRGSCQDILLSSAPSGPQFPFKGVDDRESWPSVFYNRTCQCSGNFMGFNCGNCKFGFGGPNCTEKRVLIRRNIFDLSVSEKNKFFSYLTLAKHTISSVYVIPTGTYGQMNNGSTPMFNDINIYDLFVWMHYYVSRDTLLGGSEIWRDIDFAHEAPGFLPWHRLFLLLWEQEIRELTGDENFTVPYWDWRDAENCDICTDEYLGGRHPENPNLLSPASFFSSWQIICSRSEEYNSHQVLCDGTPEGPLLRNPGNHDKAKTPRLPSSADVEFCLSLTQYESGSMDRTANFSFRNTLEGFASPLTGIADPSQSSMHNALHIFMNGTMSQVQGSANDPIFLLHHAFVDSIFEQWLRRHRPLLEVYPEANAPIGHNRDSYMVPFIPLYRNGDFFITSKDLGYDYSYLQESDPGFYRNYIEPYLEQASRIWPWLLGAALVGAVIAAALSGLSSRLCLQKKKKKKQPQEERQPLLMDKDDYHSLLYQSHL

[5] = molecular target: T2, Tyrosinase (Agaricus bisporus); test: Competitive inhibition of mushroom tyrosinase using L-tyrosine as substrate assessed increase in Km L-tyrosine by Line-Weaver-Burk plot analysis
B16 [6] = test: Antimelanogenic activity in mouse B16 cells assessed as inhibition of alpha-MSH-induced melanin formation after 24 hrs by spectrophotometric assay; assay type: functional, cell-based

## O=C1NC(=O)/C(=C/c2ccc(O)cc2)S1
B16 [1]
  Activity: Non-toxic
Tyrosinase
  IC50: 13.4 µM
[2]
  Kic: 0.84 µM
[3]
  Kic: 3.74 ×10⁻⁷ M
[4]
  inhibition: Active
[5]
  inhibition: Active
B16 [6]
  inhibition: Dose-dependent effect

## COc1ccc(/C=C2\SC(=O)NC2=O)cc1O
B16 [1]
  Activity: Non-toxic
Tyrosinase
  IC50: 9.87 µM
[2]
  Kic: 1.38 µM
[3]
  Kic: 4.13 ×10⁻⁷ M
[4]
  inhibition: Active
[5]
  inhibition: Active
B16 [6]
  inhibition: Dose-dependent effect
